What was measured:
Format in all cases: cell-based
[1] = test system: growth-arrested murine macrophage-like cells; assay: Cell number / proliferation of growth-arrested macrophage-like cells; details: for proliferation of macrophage-like cells: concentration ranges of up to 500 ng/ml
From the text: (§1) The various cell lines employed in these tests were the murine macrophage-like cell lines J774, P388D1, RAW and PU5. The various […] used in these tests were platelet-derived growth factor (PDGF), epidermal growth factor (EGF), fibroblast growth factor (FGF), and nerve growth factor (NGF). For background information on these known polypeptide growth factors see, for example, the recent review article by Kris et al., Biotechnology, February 1985, pp. 135-140; and the comprehensive review in Hormonal Proteins and Peptides, Ed. by Choh Hao Li, Vol. 12, "Growth Factors," Academic Press, 1984. EGF, NGF and FGF are commercially available from Biomedical Technologies, Cambridge, Massachusetts. In a representative test, 24 hours following exposure of the growth-arrested cells to optimal concentrations of the peptide (i.e., 10^-8 M), cell numbers inoreased approximately two-fold from a control value of […] cells/culture well. […] The results are set forth in FIG. 2 and in Table I, below. In FIG. 2, the baseline tritiated thymidine (^3 [H]-TdR) incorporation in quiescent J774 cells was 5000 cpm ± 420 s.e.m. (standard error of the mean) per well. The results are expressed as the mean of triplicate determinations.

[2] = test system: J774 murine macrophage-like cells; assay: 3[H]-TdR incorporation in growth-arrested J774 cells
Protocol: (§2) The growth stimulation of macrophage-like cells can be determined by measuring the thymidine uptake of the cells at varying concentrations of the mitogenic peptides of the present invention. This was determined for several macrophage-like cell lines including J774, P388D1, RAW and PU5. These are well-known murine cell lines available, for example, from the American Type Culture Collection, Rockville, Md.
^3 [H]-TdR incorporation. Various cell lines were plated in Dulbeccos's Modified Eagle Medium (DMEM) containing 10% fetal calf serum (FCS) in […] humidified atmosphere at 37° C. at an initial density of 5×10^5 per well in 24 well disposable plastic plates (Falcon, Oxnard, Calif.). Arrest of DNA synthesis (i.e., G0 /G1) was achieved by incubating the cells for 48 hours in serum-free DMEM containing 0.1% bovine serum albumin (BSA). The cells were then exposed to the peptide or to various […], or to FCS for 48 hours. Enhanced thymidine incorporation was assessed following a 2 hour pulse of N-methyl^3 [H]-TdR (1 μCi/ml). The cells were washed ×3 in PBS (phosphate buffered saline, pH 7.4) at 4, precipitated with 10% trichloroacetic acid (30 min at 4) and the insoluble material extracted ×2 with ETOH:ET2 O (3:1 v/v). The precipitate was solubilized in N NaOH and aliquots withdrawn for protein determinations using a dye-binding assay (Bio Rad Labs., Richmond, Calif.) and liquid scintillation spectrometry.
as §1

[3] = test system: RAW murine macrophage-like cell line; assay: 3[H]-TdR incorporation in growth-arrested RAW cells
Protocol: as §2
(§3) ^3 [H]-TdR incorporation. Various cell lines were plated in Dulbeccos's Modified Eagle Medium (DMEM) containing 10% fetal calf serum (FCS) in […] humidified atmosphere at 37° C. at an initial density of 5×10^5 per well in 24 well disposable plastic plates (Falcon, Oxnard, Calif.). Arrest of DNA synthesis (i.e., G0 /G1) was achieved by incubating the cells for 48 hours in serum-free DMEM containing 0.1% bovine serum albumin (BSA). The cells were then exposed to the peptide or to various […], or to FCS for 48 hours. Enhanced thymidine incorporation was assessed following a 2 hour pulse of N-methyl^3 [H]-TdR (1 μCi/ml). […]
(§4) The various cell lines employed in these tests were the murine macrophage-like cell lines J774, P388D1, RAW and PU5. […] The results are expressed as the mean of triplicate determinations.

[4] = test system: PU5 murine macrophage-like cell line; assay: 3[H]-TdR incorporation in growth-arrested PU5 cells
Protocol: as §2, §3, §4

[5] = test system: P388D1 murine macrophage-like cell line; assay: 3[H]-TdR incorporation in growth-arrested P388D1 cells
Protocol: as §2, §3, §4

[6] = J774, test (1), >500 ng per well (highest concentration tested), 48 hours exposure, mean ± s.e.m.

## PDGF [reference compound]
[1]
  proliferation of macrophage-like cells: failed to elicit proliferation
[2]; [6]
  3[H]-TdR Incorporation/mg/Protein (% Increase): 9.4± 0.3%

## H-YPPWNKNFTENDLL-OH [Peptide I, H-Tyr-Pro-Pro-Trp-Asn-Lys-Asn-Phe-Thr-Glu-Asn-Asp-Leu-Leu-OH]
[3]
  Conc./Well: concentration yielding optimal specific 3[H]-TdR incorporation: 10^ -8 M
[3]; test (2), 10^-8 M per well, mean ± s.e.m.
  3[H]-TdR Incorporation/mg/Protein (% Increase): 276± 18%
[1]; 24 hours after exposure of growth-arrested cells to 10^-8 M
  increase in cell numbers over control: approximately two-fold
[4]; PU5
  Conc./Well: concentration yielding optimal specific 3[H]-TdR incorporation: 10^ -6 M
[4]; PU5, test (2), 10^-6 M per well, mean ± s.e.m.
  3[H]-TdR Incorporation/mg/Protein (% Increase): 112± 4.4%
[2]; J774
  Conc./Well: concentration yielding optimal specific 3[H]-TdR incorporation: 10^-8 M
[2]; J774, test (1), 10^-8 M per well, 48 hours exposure, mean ± s.e.m. of triplicate cultures
  3[H]-TdR Incorporation/mg/Protein (% Increase): 140± 8.5%
[2]; J774, test (2), 10^-8 M per well, mean ± s.e.m.
  3[H]-TdR Incorporation/mg/Protein (% Increase): 190± 12%
[5]; P388D1
  Conc./Well: concentration yielding optimal specific 3[H]-TdR incorporation: 10^ -7 M
[5]; P388D1, test (2), 10^-7 M per well, mean ± s.e.m.
  3[H]-TdR Incorporation/mg/Protein (% Increase): 226± 22%

## NGF: nerve growth factor, known polypeptide growth factor [reference compound]
[1]
  proliferation of macrophage-like cells: failed to elicit proliferation
[2]; [6]
  3[H]-TdR Incorporation/mg/Protein (% Increase): 0± 0.5%

## EGF: epidermal growth factor, known polypeptide growth factor [reference compound]
[1]
  proliferation of macrophage-like cells: failed to elicit proliferation
[2]; [6]
  3[H]-TdR Incorporation/mg/Protein (% Increase): 5.2± 0.2%

From US4704380A, “Method of stimulating the growth of macrophage-like cells utilizing mitogenic peptides” (Washington University, priority 1987, dated 1987)
